Results reported in ChEMBL document CHEMBL5390205, “Acidonemycins A-C, Glycosylated Angucyclines with Antivirulence Activity Produced by the Acidic Culture of Streptomyces indonesiensis” (J Nat Prod, 2023).
Calls of active or inactive are those of the source. No cut-off for these calls is given here.

Assays:
Type in all cases: functional, organism-based
Settings in all cases: dose 0-100 µg/ml
Staphylococcus aureus [1] = test: Antivirulence activity against methicillin-resistant Staphylococcus aureus USA300 LAC assessed as inhibition of delta toxin production incubated for 22 hrs by LC-MS analysis
Staphylococcus aureus [2] = test: Antivirulence activity against methicillin-resistant Staphylococcus aureus USA300 LAC assessed as inhibition of phenol-soluble modulin alpha1-4 production incubated for 22 hrs by LC-MS analysis
Staphylococcus aureus [3] = test: Antivirulence activity against methicillin-resistant Staphylococcus aureus USA300 LAC assessed as inhibition of biofilm formation incubated for 22 hrs by crystal violet staining based assay

Compound | Activity (Staphylococcus aureus [1]) | Activity (Staphylococcus aureus [2]) | Activity (Staphylococcus aureus [3])
COC(=O)[C@H]1O[C@@H](Oc2cccc3c2C(=O)c2ccc4c(c2C3=O)C(=O)C[C@@H](C)C4)[C@H](O)[C@@H](O)[C@@H]1O | Dose-Dependent Effect | Dose-Dependent Effect | Dose-Dependent Effect
C[C@@H]1CC(=O)c2c(ccc3c2C(=O)c2cccc(O[C@@H]4O[C@H](C(=O)O)[C@@H](O)[C@H](O)[C@H]4O)c2C3=O)C1 | Dose-Dependent Effect | Dose-Dependent Effect | Dose-Dependent Effect
COC(=O)[C@H]1O[C@@H](Oc2cccc3c2C(=O)O[C@H]3c2c(O)ccc3c2C(=O)C[C@@H](C)C3)[C@H](O)[C@@H](O)[C@@H]1O | inactive | inactive | inactive
